Holding throughout (assay type): biochemical
In one assay the target is wild type ROS1 (Homo sapiens, UniProt P08922). As to the kind of experiment: Inhibition of wild type ROS1 kinase, CisBio HTRF KinEASE-TK assay. Particulars: read-out: ROS1 wT IC50. As to the method:
(§1) The potency of a compound inhibiting wild type and exemplary mutant ROS1 kinases was determined using CisBio's HTRF Kinease-TK assay technology. […] No. […] No. […] Each kinase is incubated with 250 nM TK-substrate biotin (CisBio, Cat. No. 62TKOPEC) and 1 mM ATP along with test compound in a buffer consisting of 25 mM MOPS [pH 7.4], 5 mM MgCl2, 0.005% Triton X-100, and 2% DMSO in a volume of 8 μL. […] After a 1 hour incubation at 22° C., the extent of reaction was determined using a PerkinElmer EnVision multimode plate reader via HTRF dual wavelength detection, and the percent of control (POC) was calculated using a ratiometric emission factor. 100 POC is determined using no test compound and 0 POC is determined in the absence of enzyme.
A general note: TR-FRET usually uses a lanthanide donor and a delayed reading to cut background.

A further assay addresses L2026M ROS1 (Homo sapiens, UniProt P08922, L2026M). As to the kind of experiment: Inhibition of L2026M ROS1 kinase, CisBio HTRF KinEASE-TK assay. As to the method: as §1
In the next assay the target is D2033N ROS1 (Homo sapiens, UniProt P08922, D2033N). As to the kind of experiment: Inhibition of D2033N ROS1 kinase, CisBio HTRF KinEASE-TK assay. The protocol: as §1
Sequence of D2033N ROS1 (P08922 28-2347 D2033N): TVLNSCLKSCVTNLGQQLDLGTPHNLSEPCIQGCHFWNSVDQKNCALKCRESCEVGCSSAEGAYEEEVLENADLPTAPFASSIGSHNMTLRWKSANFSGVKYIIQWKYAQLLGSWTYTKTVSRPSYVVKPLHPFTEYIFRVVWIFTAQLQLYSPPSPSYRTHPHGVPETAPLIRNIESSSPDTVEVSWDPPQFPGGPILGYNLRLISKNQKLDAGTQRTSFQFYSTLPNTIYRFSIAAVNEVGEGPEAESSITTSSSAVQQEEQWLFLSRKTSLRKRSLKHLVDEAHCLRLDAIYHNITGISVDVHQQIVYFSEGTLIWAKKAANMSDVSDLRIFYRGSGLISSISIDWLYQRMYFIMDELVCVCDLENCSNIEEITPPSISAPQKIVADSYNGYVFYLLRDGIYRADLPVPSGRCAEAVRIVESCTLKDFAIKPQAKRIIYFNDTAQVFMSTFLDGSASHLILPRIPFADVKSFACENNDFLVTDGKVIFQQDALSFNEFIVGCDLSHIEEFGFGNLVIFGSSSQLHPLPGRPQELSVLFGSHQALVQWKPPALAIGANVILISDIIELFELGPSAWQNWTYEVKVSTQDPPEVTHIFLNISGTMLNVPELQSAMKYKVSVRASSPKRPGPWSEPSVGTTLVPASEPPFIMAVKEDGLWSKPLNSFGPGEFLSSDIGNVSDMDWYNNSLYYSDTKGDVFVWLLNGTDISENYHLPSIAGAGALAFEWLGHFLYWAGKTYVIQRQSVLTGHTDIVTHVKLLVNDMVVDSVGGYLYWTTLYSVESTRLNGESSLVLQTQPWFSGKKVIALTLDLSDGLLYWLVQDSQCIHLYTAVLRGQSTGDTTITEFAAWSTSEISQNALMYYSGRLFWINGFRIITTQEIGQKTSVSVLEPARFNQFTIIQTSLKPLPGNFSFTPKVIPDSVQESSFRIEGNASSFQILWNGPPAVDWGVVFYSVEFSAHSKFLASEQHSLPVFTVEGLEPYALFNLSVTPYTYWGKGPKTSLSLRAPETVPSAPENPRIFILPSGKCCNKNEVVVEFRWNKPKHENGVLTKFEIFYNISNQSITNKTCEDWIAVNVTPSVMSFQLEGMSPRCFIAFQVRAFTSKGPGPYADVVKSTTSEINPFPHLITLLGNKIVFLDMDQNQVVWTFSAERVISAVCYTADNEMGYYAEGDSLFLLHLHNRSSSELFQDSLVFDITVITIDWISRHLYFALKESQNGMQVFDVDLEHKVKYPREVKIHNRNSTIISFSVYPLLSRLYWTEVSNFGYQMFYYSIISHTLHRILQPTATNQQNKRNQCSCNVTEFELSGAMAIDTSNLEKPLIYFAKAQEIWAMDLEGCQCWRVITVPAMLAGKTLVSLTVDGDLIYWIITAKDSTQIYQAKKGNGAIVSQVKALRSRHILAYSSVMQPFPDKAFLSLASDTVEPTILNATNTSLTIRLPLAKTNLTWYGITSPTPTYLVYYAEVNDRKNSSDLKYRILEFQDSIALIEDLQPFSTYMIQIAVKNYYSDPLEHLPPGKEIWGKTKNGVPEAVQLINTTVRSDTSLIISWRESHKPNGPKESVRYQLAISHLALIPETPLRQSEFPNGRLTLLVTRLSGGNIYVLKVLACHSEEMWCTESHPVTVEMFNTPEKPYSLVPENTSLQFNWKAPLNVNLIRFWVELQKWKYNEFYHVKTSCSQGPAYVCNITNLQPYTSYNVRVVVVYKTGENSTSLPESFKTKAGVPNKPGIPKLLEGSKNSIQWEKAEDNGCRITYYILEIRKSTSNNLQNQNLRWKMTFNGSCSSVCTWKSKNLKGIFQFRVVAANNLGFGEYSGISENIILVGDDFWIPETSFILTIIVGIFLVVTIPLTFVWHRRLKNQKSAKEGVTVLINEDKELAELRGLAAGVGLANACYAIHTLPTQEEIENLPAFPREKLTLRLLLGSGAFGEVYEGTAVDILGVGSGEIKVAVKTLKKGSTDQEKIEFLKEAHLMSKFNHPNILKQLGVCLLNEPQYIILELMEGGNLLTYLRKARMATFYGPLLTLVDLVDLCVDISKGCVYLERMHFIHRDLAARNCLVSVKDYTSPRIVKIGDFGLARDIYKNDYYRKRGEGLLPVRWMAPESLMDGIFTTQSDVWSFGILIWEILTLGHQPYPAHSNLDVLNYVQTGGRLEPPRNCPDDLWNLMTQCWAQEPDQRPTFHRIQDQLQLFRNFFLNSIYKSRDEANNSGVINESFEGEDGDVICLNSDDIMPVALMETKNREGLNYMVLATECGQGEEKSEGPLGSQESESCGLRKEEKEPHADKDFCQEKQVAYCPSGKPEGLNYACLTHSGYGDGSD
A further assay has as its target G2032R ROS1 (Homo sapiens, UniProt P08922, G2032R). As to the kind of experiment: Inhibition of G2032R ROS1 kinase, CisBio HTRF KinEASE-TK assay. The protocol:
as §1

Consider ten compounds from patent US20190076436A1, “MACROCYCLIC COMPOUNDS AS ROS1 KINASE INHIBITORS” (Array BioPharma Inc., priority 2017, published 2019).

Sequence of L2026M ROS1 (P08922 28-2347 L2026M): as the sequence (P08922 28-2347 D2033N) above, with L1999M, N2006D counted along it
Sequence of wild type ROS1 (P08922 1883-2347 limits assumed): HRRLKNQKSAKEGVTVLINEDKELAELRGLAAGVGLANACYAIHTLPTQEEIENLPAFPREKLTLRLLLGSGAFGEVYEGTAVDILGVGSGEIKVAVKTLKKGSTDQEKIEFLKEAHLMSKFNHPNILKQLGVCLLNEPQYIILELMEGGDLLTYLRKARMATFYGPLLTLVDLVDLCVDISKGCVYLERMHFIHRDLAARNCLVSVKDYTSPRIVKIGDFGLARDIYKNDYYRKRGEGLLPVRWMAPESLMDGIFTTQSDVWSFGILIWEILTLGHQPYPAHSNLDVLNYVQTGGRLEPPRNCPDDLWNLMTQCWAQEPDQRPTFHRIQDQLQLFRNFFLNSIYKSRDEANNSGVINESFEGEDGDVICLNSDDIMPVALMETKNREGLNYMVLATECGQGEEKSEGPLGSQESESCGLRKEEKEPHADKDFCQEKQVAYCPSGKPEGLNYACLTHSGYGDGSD
Sequence of G2032R ROS1 (P08922 1883-2347 G2032R limits assumed): as the sequence (P08922 1883-2347 limits assumed) above, with G150R counted along it

The IC50 is the concentration at which inhibition is half-maximal. For `O=C1NCC(F)(F)COc2ncc(F)cc2[C@H]2CCCN2c2ccn3ncc1c3n2` [Compound 19, (6R)-9,15,15-trifluoro-13-oxa-2,11,17,21,22,25-hexaazapentacyclo[17.5.2.0^2,6.0^7,12.0^22,26] hexacosa-1(25),7,9,11,19(26),20,23-heptaen-18-one], the IC50 at wild type ROS1 is 2.4 nM; at L2026M ROS1, 2.4 nM; on D2033N ROS1, 1.2 nM; at G2032R ROS1, 14.4 nM.

With `C[C@H]1CNC(=O)c2cnn3ccc(nc23)N2CCC[C@@H]2c2cc(F)cn(c2=O)C1` [Compound 35, (6R,13S)-9-fluoro-13-methyl-2,11,15,19,20,23-hexaazapentacyclo [15.5.2.1^7,11.0^2,6.0^20,24]pentacosa-1(23),7,9,17(24),18,21-hexaene-16,25-dione], the IC50 was 779 nM at wild type ROS1, 589 nM against L2026M ROS1, 260 nM against D2033N ROS1 and 4930 nM against G2032R ROS1.

Turning to `O=C1NC[C@@H](O)COc2ncc(F)cc2[C@H]2CCCN2c2ccn3ncc1c3n2` [Compound 7, (6R,15R)-9-fluoro-15-hydroxy-13-oxa-2,11,17,21,22,25-hexaazapentacyclo-[17.5.2.0^2,6.0^7,12.0^22,26]hexacosa-1(25),7,9,11,19(26),20,23-heptaen-18-one], the IC50 on wild type ROS1 was 3.1 nM; on L2026M ROS1 it was 2.9 nM; at D2033N ROS1, 0.6 nM; at G2032R ROS1, 29.2 nM.

Take `O=C1NCCOc2ncc(F)cc2[C@H]2CCCN2c2ccn3ncc1c3n2` [Compound 9, (6R)-9-fluoro-13-oxa-2,11,16,20,21,24-hexaazapentacyclo[16.5.2.0^2,6.0^7,12.0^21,25] pentacosa-1(24),7,9,11,18(25),19,22-heptaen-17-one]: the IC50 on wild type ROS1 worked out at 9.2 nM; against L2026M ROS1, 10.2 nM; against D2033N ROS1, 1.7 nM; at G2032R ROS1 it was 98.6 nM.

Consider `O=C1NCCCOc2ccc(F)cc2[C@H]2CCCN2c2ccn3ncc1c3n2` [Compound 20, (6R)-9-fluoro-13-oxa-2,17,21,22,25-pentaazapentacyclo[17.5.2.0^2,6.0^7,12.0^22,26] hexacosa-1(25),7,9,11,19(26),20,23-heptaen-18-one], for which the IC50 on wild type ROS1 stood at 2.5 nM; against L2026M ROS1, 2.2 nM; at D2033N ROS1, 2.8 nM; at G2032R ROS1 it was 21.6 nM.

Regarding `O=C1OCCOc2ncc(F)cc2[C@H]2CCCN2c2ccn3ncc1c3n2` [Compound 14], the IC50 on wild type ROS1 amounted to 28.9 nM; at L2026M ROS1, 30.3 nM; on D2033N ROS1, 7.6 nM; at G2032R ROS1 it was 107 nM.

`O=C1NCCCOc2cccc(n2)[C@H]2CCCN2c2ccn3ncc1c3n2` [Compound 2, (6R)-12-oxa-2,16,20,21,24,26-hexaazapentacyclo[16.5.2.1^7,11.0^2,6.0^21,25] hexacosa-1(24),7(26),8,10,18(25),19,22-heptaen-17-one]: the IC50 was determined as 80.3 nM at wild type ROS1, 67 nM against L2026M ROS1, 11.9 nM at D2033N ROS1 and 1060 nM against G2032R ROS1.

With `O=C1NCCCOc2ncc(F)cc2[C@H]2CCCN2c2ccn3ncc1c3n2` [Compound 3, (6R)-9-fluoro-13-oxa-2,11,17,21,22,25-hexaazapentacyclo[17.5.2.0^2,6.0^7,12.0^22,26] hexacosa-1(25),7,9,11,19(26),20,23-heptaen-18-one], the IC50 was 1.2 nM at wild type ROS1, 1.2 nM on L2026M ROS1, 0.3 nM on D2033N ROS1 and 9.4 nM against G2032R ROS1.

For the compound `CC(=O)N1CCOc2ccc(F)cc2[C@H]2CCCN2c2ccn3ncc(c3n2)C1` [Compound 22, 1-[(6R)-9-fluoro-13-oxa-2,16,20,21,24-pentaazapentacyclo[16.5.2.0^2,6.0^7,12.0^21,25]pentacosa-1(24),7,9,11,18(25),19,22-heptaen-16-yl]ethan-1-one], the IC50 at wild type ROS1 was found to be 331 nM; at L2026M ROS1, 713 nM; against D2033N ROS1, 397 nM; on G2032R ROS1, 3980 nM.

With `O=C1NC[C@H](O)COc2ccc(F)cc2C2CC(F)(F)CN2c2ccn3ncc1c3n2` (single isomer, unassigned) [Compound 45], the IC50 on wild type ROS1 was 6.1 nM; against L2026M ROS1, 4.6 nM; on D2033N ROS1, 16.8 nM; against G2032R ROS1 it was 114 nM.
